The text below walks through data of publication PMC7175122 (Biomolecules, 2020).

Entries after “also recorded” stand apart in the source; their conditions may differ. Read-outs that look alike come from different tables or passages of the source. Square brackets hold non-standard residues; d marks the D form. Side chains are listed from the residue outwards. Peptide text beside a SMILES is read from it. hArg = N=C(N)NCCCC[C@H](N)C(=O)O; ΔPro = O=C(O)[C@@H]1C=CCN1; Dab = NCC[C@H](N)C(=O)O; Dhp = not defined here

For data set [1], the target named is T1, VEGF-A165/NRP-1 complex (Homo sapiens, UniProt O14786).
T1 construct: purchased R&D Systems (Minneapolis, MN, USA)
T1 sequence (O14786 22-641 limits assumed): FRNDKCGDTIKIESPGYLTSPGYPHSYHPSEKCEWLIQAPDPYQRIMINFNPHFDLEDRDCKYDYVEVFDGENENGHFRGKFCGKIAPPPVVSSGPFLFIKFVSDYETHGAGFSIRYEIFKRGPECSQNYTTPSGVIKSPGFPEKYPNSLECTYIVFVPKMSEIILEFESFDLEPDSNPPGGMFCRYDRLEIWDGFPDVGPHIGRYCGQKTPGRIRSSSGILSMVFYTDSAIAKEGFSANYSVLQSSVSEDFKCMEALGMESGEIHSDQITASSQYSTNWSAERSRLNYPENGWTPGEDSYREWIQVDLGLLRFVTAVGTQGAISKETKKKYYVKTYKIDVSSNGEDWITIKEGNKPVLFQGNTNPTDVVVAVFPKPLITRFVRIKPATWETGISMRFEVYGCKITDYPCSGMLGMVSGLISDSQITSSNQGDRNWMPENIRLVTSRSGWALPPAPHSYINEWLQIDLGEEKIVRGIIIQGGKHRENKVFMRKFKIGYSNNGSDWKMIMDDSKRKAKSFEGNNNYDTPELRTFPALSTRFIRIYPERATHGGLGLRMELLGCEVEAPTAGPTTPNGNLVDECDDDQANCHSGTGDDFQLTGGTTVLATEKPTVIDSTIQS
As to the kind of experiment: Competitive NRP-1-binding assay (bt-VEGF-A165/NRP-1 complex inhibition, chemiluminescent detection). Conditions: for IC50: inhibition of VEGF-A165/NRP-1 complex formation; for inhibition values (plateau): 1–50 μM concentrations, IC50 not calculable in this range. On the procedure:
The method used was similar to the one previously described. The first step was a coating of a 96-well plate using 100 μL (200 ng/well) of recombinant human NRP-1. After overnight incubation at 4 °C, nonspecific binding was blocked with 0.5% BSA in PBS. Next, 50 µL of peptide in PBS in selected concentrations and 50 µL of human (bt)-VEGF-A165 (400 ng/mL) in PBS containing 4 µg/mL of heparin were added and incubated for 2 h at r.t. After washing, wells were treated with streptavidin-horseradish peroxidase conjugate in PBS (1:8000) for 45 min. Final washing was followed by an addition of 100 µL chemiluminescent substrate and the immediate quantitative determination of the luminescence. Wells incubated with (bt)-VEGF-A165 only served as a positive control (P), while not-coated by NRP-1 wells were used for a negative control (NS). Percentages of inhibition were calculated by the following formula:100% − [[(S − NS)/(P − NS)]·100%],(1) where S is the signal intensity obtained from wells incubated with the peptide. Presented data are the mean ± SEM of two or three independent experiments, each performed in triplicate.
IC50 of the peptides were calculated using the nonlinear regression function with Prism (GraphPad Software, San Diego, CA, USA). The same software was used to calculate and present the plasma stability assay results. All results are represented as an average, with error bars indicating ± SEM.
Peptides were tested by the bt-VEGF-A165/NRP-1 complex inhibition assay with chemiluminescent detection, as previously described. […] The amino acid was inserted in the same places as the Cys-Asp fragment previously. Compounds 3 and 4 were tested by the bt-VEGF-A165/NRP-1 inhibition assay at 1–50 μM concentrations.
2. Dose-response curves of synthesized peptides
The concentration-dependent inhibitory dose-curve data were plotted as the percentage inhibition normalized to the controls, with the applied curve fits calculated using GraphPad Prism (Version 5.01, GraphPad software). Data are presented as log(inhibitor) versus a normalized response-variable slope. Error bars represent means +/- SEM for two or three independent experiments. […]

Data set [2] is described as follows: Degradation assay in human plasma (enzymatic stability). Conditions: human blood plasma, 37 °C; for remaining at 24 h: after 24 h, read-out: initial concentration still present in plasma; for remaining at 96 h: after 96 h, read-out: concentration remaining in plasma. The data set is classed as in vitro ADME. As for the experimental part: This assay was performed according to the method described previously. First, human blood plasma was preactivated in an Eppendorf ThermoMixer® Comfort (Hamburg, Germany) for 20 min at 37 °C (350 rpm). Next, the peptide dissolved in water (6 mg/mL; ~5 μmol/mL) was mixed with human plasma (~1 μmol/mL final concentration) and incubated in the same conditions. One-hundred microliters of the mixture was collected in 1.5-mL microtubes at selected time intervals (0–96 h), followed by protein precipitation by adding 100 μL of 98% ethanol and by vortexing for 1 min (3000 min^−1). Samples were centrifuged for 10 min at 4 °C (11,000 g), and 100 μL of supernatant was collected and lyophilized. Reconstituted in 100 μL of water, samples were subjected to RP-HPLC analysis. LC-MS analyses with a Shimadzu LCMS-2020 mass spectrometer (Duisburg, Germany) were done for selected samples. A detailed description of the method can be found in the Supplementary Materials. All results are represented as an average, with error bars indicating ± SEM determined from the results of two independent experiments performed in duplicates.
Compounds were incubated in human plasma at 37 °C, and at selected time intervals, samples were analyzed using RP-HPLC and LC-MS, as described previously. […] After 24 h, almost 50% of each compound’s initial concentration was still present in the plasma. Following the next time intervals, we observed a significant degradation of peptide 3 (~20% after 96 h) but a much slower decrease in the concentration of peptide 4 (~40% after 96 h). This is probably due to the slower detachment of Cys residue from the side chain (peptide 4) compared to detachment from the main chain (peptide 3). […] However, unmodified peptides tend to have short half-lives counted rather in minutes, e.g., ghrelin [48] and endomorphins, and modifications lead to extending this time often to only a few hours.
Table S4. Confidence intervals (95%) determined for calculated IC50.
Compound IC50 (µM) 95% Confidence Intervals
3. Analytical data of serum degradation
Analysis of plasma degradation products was carried out by HPLC-ESI-Q-MS with a Prominence HPLC system (binary pump system LC-20AD and autosampler SIL-20AC HT coupled to a SPD-20A UV detector and LCMS-2020 quadrupole mass detector).
Chromatographic separation was achieved on a Phenomenex Jupiter Proteo C12 column (250 × 4.6 mm) at 35 °C. Mobile phases consisted of H2O:TFA (99.95:0.05 v/v, phase A) and ACN:TFA (99.95:0.05 v/v, phase B) at a flow rate of 1.2 mL/min. […]
Elution was performed with a gradient as follows: t = 25 min., 0%–25% B. The injection volume was 15 μl. UV spectra were recorded at 190 nm.
The electrospray ionization (ESI) was operated in positive mode. […]

Data set [3] has as its target T1, VEGF-A165/NRP-1 complex. Conditions: cited from earlier work; for inhibition of the formation of the VEGF-A165/NRP-1 complex: concentration of 100 μM.
The next data set is described as follows: PBS. Particulars: 22 °C, up to 4 h.
The nature of another data set: human blood plasma. Conditions: 37 °C, up to 96 h.
On the set-up of data set [4]: method as in PMID 30881620. Conditions: human plasma; cited from earlier work.
Where [5] appears, read: mean ± SEM, read-out: logIC50 (converted).
[6] abbreviates: reference peptide, read-out: RP IC50.

Regarding `N=C(N)NCCCC[C@H](N)C(=O)NCCCC[C@H](NC(=O)[C@H](CC(=O)O)NC(=O)[C@@H](N)CS)C(=O)N[C@@H](CCN)C(=O)N1CC=C[C@H]1C(=O)N[C@@H](CCCNC(=N)N)C(=O)O` [Compound 1, H-Cys-Asp-Lys(hArg)-Dab-Dhp-Arg-OH] (H-CDK(hArg)[Dab][ΔPro]R-OH), the IC50 on VEGF-A165/NRP-1 complex [1] (read-out: IC50) worked out at 2.5 µM.

As for `N=C(N)NCCCC[C@H](NC(=O)[C@H](CC(=O)O)NC(=O)[C@@H](N)CS)C(=O)NCCCC[C@H](N)C(=O)N[C@@H](CCN)C(=O)N1CC=C[C@H]1C(=O)N[C@@H](CCCNC(=N)N)C(=O)O` [Compound 2, H-Lys(Cys-Asp-hArg)-Dab-Dhp-Arg-OH] (H-K([hArg-Asp-Cys])[Dab][ΔPro]R-OH), at VEGF-A165/NRP-1 complex [1] (read-out: IC50), the IC50 amounted to 2 µM.

`N=C(N)NCCCC[C@H](N)C(=O)NCCCC[C@H](NC(=O)[C@@H](N)CS)C(=O)N[C@@H](CCN)C(=O)N1CC=C[C@H]1C(=O)N[C@@H](CCCNC(=N)N)C(=O)O` [Compound 3, H-Cys-Lys(hArg)-Dab-Dhp-Arg-OH] (H-CK(hArg)[Dab][ΔPro]R-OH): in data set [2], the remaining at 24 h is approximately 50% and the remaining at 96 h is approximately 20%. Besides, the “inhibition values (plateau)” value on VEGF-A165/NRP-1 complex [1] is reported as ~ 80%. Also, the IC50 on VEGF-A165/NRP-1 complex [1] (setting [5]) was 0.0834 µM.

As for `N=C(N)NCCCC[C@H](NC(=O)[C@@H](N)CS)C(=O)NCCCC[C@H](N)C(=O)N[C@@H](CCN)C(=O)N1CC=C[C@H]1C(=O)N[C@@H](CCCNC(=N)N)C(=O)O` [Compound 4, H-Lys(Cys-hArg)-Dab-Dhp-Arg-OH] (H-K([hArg-Cys])[Dab][ΔPro]R-OH), in data set [2], the remaining at 24 h is approximately 50% and the remaining at 96 h is approximately 40%. For the same molecule, the “inhibition values (plateau)” value on VEGF-A165/NRP-1 complex [1] is given as ~ 80%. In addition, on VEGF-A165/NRP-1 complex [1] (setting [5]), the IC50 is 0.064 µM.

`C[C@@H](O)[C@H](N)C(=O)N[C@@H](CCCCN)C(=O)N1CCC[C@H]1C(=O)N[C@@H](CCCNC(=N)N)C(=O)O` [Tuftsin, TKPR, reference compound] (H-TKPR-OH; N-terminus and C-terminus assumed): the IC50 is not below 100 µM at VEGF-A165/NRP-1 complex [3] (setting [6]) and 100 µM on VEGF-A165/NRP-1 complex [1] (read-out: IC50). In addition, at VEGF-A165/NRP-1 complex [1] (100 µM concentration, read-out: percentage inhibitory effect), the inhibition at 100 µM was 46%.

Turning to CDKPRR, the “inhibition of the formation of the VEGF-A165/NRP-1 complex” value at VEGF-A165/NRP-1 complex [3] was approximately 100%.

Regarding “DKPRR [CDKPRR lacking the N-terminal Cys]”, the “percentage of inhibition of VEGF-A165/NRP-1 interaction” value on VEGF-A165/NRP-1 complex [3] (at 100 µM) is listed as ~ 20%. For the same molecule, the IC50 in the data set with VEGF-A165/NRP-1 complex [3] (setting [6]) is more than 100 µM.

In the case of “ERTCDKPRR [fragment of the VEGF-A165 domain encoded by exons 7 and 8]”, in the data set with VEGF-A165/NRP-1 complex [3], the “inhibition of the formation of the VEGF-A165/NRP-1 complex” value is recorded as approximately 100%.

Take H-CKPRR-OH [Compound 7, CKPRR]: on VEGF-A165/NRP-1 complex [1] (setting [5]), the IC50 was 0.187 µM.

Regarding H-CLPPR-OH [Compound 5, CLPPR], the IC50 at VEGF-A165/NRP-1 complex [1] (read-out: IC50) came to 11.4 µM. Besides, the “fold decrease of IC50 compared to the A7R peptide” value on VEGF-A165/NRP-1 complex [1] (vs A7R) is listed as “seven-fold”.

H-CTKPR-OH [Compound 6, CTKPR]: the IC50 at VEGF-A165/NRP-1 complex [1] (read-out: IC50) amounted to 9.3 µM. Also, on VEGF-A165/NRP-1 complex [1] (vs tuftsin), the “fold increase of ligand affinity compared to tuftsin” value is reported as “more than 11 fold”.

Consider “H-Cys-Lys(hArg)-Dab-Dhp-Arg-OH (H-CK(hArg)[Dab][ΔPro]R-OH; SMILES N=C(N)NCCCC[C@H](N)C(=O)NCCCC[C@H](NC(=O)[C@@H](N)CS)C(=O)N[C@@H](CCN)C(=O)N1CC=C[C@H]1C(=O)N[C@@H](CCCNC(=N)N)C(=O)O)”, for which the fragment found result in “PBS” is listed as “dimer, minor, 4 h”. The cleaved bond entry in the data set “human blood plasma” is “Cys-Lys, first_seen; also recorded: hArg-Lys; also recorded: Lys-Dab”.

Turning to “H-Lys(Cys-hArg)-Dab-Dhp-Arg-OH (H-K([hArg-Cys])[Dab][ΔPro]R-OH)”, the fragment found result in the data set “PBS” was “dimer, minor, 4 h”. The cleaved bond result in “human blood plasma” was “Cys-hArg, first_seen; also recorded: hArg-Lys; also recorded: Lys-Dab”.

For “H-Lys(hArg)-Dab-Dhp-Arg-OH (H-K(hArg)[Dab][Dhp]R-OH; reading uncertain; also: printed as H-Lys(hArg)-Dab-Dhp-Arg-OH) [PP, parent branched peptide, previously published NRP-1 ligand]”, the IC50 with VEGF-A165/NRP-1 complex [3] (parent peptide, data already published, read-out: IC50) is 4.3 µM.

Regarding H-Lys(hArg)-Dab-Dhp-Arg-OH [PP], in data set [4], the t1/2 is listed as 51 h.

With LPPR, on VEGF-A165/NRP-1 complex [3], the “share of A7R inhibition of NRP-1 activation by VEGF-A165 for which the sequence is responsible” value was 75%.
